According to patent US20260103709A1, “C-MYC-TARGETING CHARGE-ALTERING RELEASABLE TRANSPORTERS AS ANTI-TUMOR AGENTS FOR BREAST CANCER THERAPY” (The Board of Trustees of the Leland Stanford Junior …, priority 2022, published 2026):

How the values were obtained:
[1] = test system: murine cell lines M1011, M158, and 4T1; test: JQ1 cell viability IC50, murine TNBC cell lines (CellTiter Glo); assay type: cell-based, mouse; settings: 24 hour treatment, range over murine TNBC cell lines
Experimental: (§1) The specificity and dependence of CART siMYC's inhibitory effect on Myc or MYC levels in murine or human TNBC cells, respectively, was evaluated next. […] A number of different murine and human TNBC cell lines expressing high (murine cells: M158, M1011, and 4T1; and human cells: MDA-MB-231 and MDA-MB-436) or low MYC levels (human cell: BT20) were evaluated. […] The viability of M1011 and 4T1 cells was reduced by 25% upon treatment with CART siMYC but not with CARTs alone or with CART siLUC (FIG. 4B, FIG. 4C). In human TNBC cells, treatment with a human MYC-targeting siRNA (SEQ ID NO: 1) reduced viability by 35% or 22% in MDA-MB-231 or MDA-MB-436 cells, respectively (FIG. 4D, FIG. 4E). […] We conclude that CART siMYC is effective against TNBC cells expressing high, but not low, MYC levels and that the breadth of its therapeutic effects is dependent on cellular MYC levels.
(§2) […] 96-well plates were rocked for 5 minutes at room temperature, 100 μl from each well were transferred to a white opaque 96-well plate and luminescence was read using a SpectraMax Paradigm Multi-Mode Detection Platform plate reader (Molecular Devices).

[2] = test system: human cell lines MDA-MB-436, MDA-MB-231, and BT20; test: JQ1 cell viability IC50, human TNBC cell lines (CellTiter Glo); assay type: cell-based; settings: 24 hour treatment, range over human TNBC cell lines
Experimental: as §1, §2

[3] = test system: BT20 cells; test: Cell viability after CART with human MYC siRNA, BT20 (low MYC); assay type: cell-based; settings: JQ1 at the concentrations used for pre-treatment
Experimental: FIG. 4A to FIG. 4F: CART siMYC decreases cell viability in cells expressing high levels of Myc. […] Error bars represent SEM. Significance was taken at P<0.05 (*), P<0.01 (**), and P<0.005 (***). ns=not significant.
The specificity and dependence of CART siMYC's inhibitory effect on Myc or MYC levels in murine or human TNBC cells, respectively, was evaluated next. […] A number of different murine and human TNBC cell lines expressing high (murine cells: M158, M1011, and 4T1; and human cells: MDA-MB-231 and MDA-MB-436) or low MYC levels (human cell: BT20) were evaluated. […] The viability of M1011 and 4T1 cells was reduced by 25% upon treatment with CART siMYC but not with CARTs alone or with CART siLUC (FIG. 4B, FIG. 4C). In human TNBC cells, treatment with a human MYC-targeting siRNA (SEQ ID NO: 1) reduced viability by 35% or 22% in MDA-MB-231 or MDA-MB-436 cells, respectively (FIG. 4D, FIG. 4E). […]
Plates were incubated for 48 hours and upon treatment completion, a CellTiTer Glow assay was performed according to manufacturer's instructions (Promega). 96-well plates were rocked for 5 minutes at room temperature, 100 μl from each well were transferred to a white opaque 96-well plate and luminescence was read using a SpectraMax Paradigm Multi-Mode Detection Platform plate reader (Molecular Devices).

`Cc1sc2c(c1C)C(c1ccc(Cl)cc1)=N[C@@H](CC(=O)OC(C)(C)C)c1nnc(C)n1-2` [JQ1] was tested, and the IC50 [1] was 0.3 to 0.72 µM, the IC50 [2] was 7 to 32 µM and the “effect of JQ1 on BT20 cells” value [3] was “not significantly affected”.
